Results on three molecules are retold here after ChEMBL document CHEMBL5360588, “LC-MS-Guided Isolation of Cyanogripeptides A-C, Cyclolipopeptides with β-Methyl-Leucine Residues, from an Actinoalloteichus cyanogriseus LHW52806” (J Nat Prod, 2023).

≈ marks a conversion by molar mass, not a printed value.

One assay concerns PC-9. Description: Antiproliferative activity against human PC-9 cells assessed as inhibition of cell growth measured after 72 by Cell titre-glo assay. Type of assay: functional, cell-based.
The next assay concerns A2780. Briefly: Antiproliferative activity against human A2780 cells assessed as inhibition of cell growth measured after 72 by Cell titre-glo assay. In kind it is functional, cell-based.
A further assay has as its system U-937. Briefly: Antiproliferative activity against human U-937 cells assessed as inhibition of cell growth measured after 72 by Cell titre-glo assay. In kind it is functional, cell-based.
A further assay deals with Raji. Briefly: Antiproliferative activity against human Raji cells assessed as inhibition of cell growth measured after 72 by Cell titre-glo assay. Type of assay: functional, cell-based.
In another assay the test system is Daudi. Briefly: Antiproliferative activity against human Daudi cells assessed as inhibition of cell growth measured after 72 by Cell titre-glo assay. Type of assay: functional, cell-based.
The subject of a further assay is PC-3. Description: Antiproliferative activity against human PC-3 cells assessed as inhibition of cell growth measured after 72 by Cell titre-glo assay. Type of assay: functional, cell-based.
The test system of another assay is HT-29. Description: Antiproliferative activity against human HT-29 cells assessed as inhibition of cell growth measured after 72 by Cell titre-glo assay. In kind it is functional, cell-based.
The test system of another assay is NB-4. Briefly: Antiproliferative activity against human NB4 cells assessed as inhibition of cell growth measured after 72 by Cell titre-glo assay. In kind it is functional, cell-based.
For assay [1], the system named is Mycolicibacterium smegmatis. Briefly: Antibacterial activity against Mycolicibacterium smegmatis ATCC607 assessed as inhibition of bacterial growth measured after 3 days by broth microdilution assay. In kind it is functional. To be noted: ATCC607, 72 h, time 3 day.
The test system of assay [2] is Helicobacter pylori. Description: Antibacterial activity against Helicobacter pylori 26695 assessed as inhibition of bacterial growth measured after 3 days by broth microdilution assay. Type of assay: functional. To be noted: Helicobacter pylori, 26695, 72 h; time 3 day. On the technique in general: In broth dilution the organism is exposed to a series of concentrations in liquid medium.

Assay [3] deals with Helicobacter pylori. Briefly: Antibacterial activity against Helicobacter pylori G27 assessed as inhibition of bacterial growth measured after 3 days by broth microdilution assay. Type of assay: functional. The following applies: G27, 72 h, time 3 day.

`CC(C)C[C@H](NC(=O)Cc1ccccc1)C(=O)N[C@H](CCCNC(=N)N)C(=O)N[C@@H]1C(=O)N[C@@H]([C@@H](C)C(C)C)C(=O)NCC(=O)N[C@@H]([C@H](C)C(C)C)C(=O)O[C@@H]1C`: the IC50 in the assay with PC-9, in the assay on A2780, in the assay with U-937, in the assay with Raji, in the assay with Daudi and in the assay on PC-3 was over 20 µM in each case. For the same molecule, the IC50 with HT-29 and with NB-4 was over 20 µM in each case.

For `CC(C)CCC(=O)N[C@@H](CC(C)C)C(=O)N[C@H](CCCNC(=N)N)C(=O)N[C@@H]1C(=O)N[C@@H]([C@@H](C)C(C)C)C(=O)NCC(=O)N[C@@H]([C@H](C)C(C)C)C(=O)O[C@@H]1C`, the half-inhibitory concentration (IC50) in the assay on PC-9, in the assay on A2780, in the assay with U-937, in the assay with Raji, in the assay on Daudi and in the assay with PC-3 was over 20 µM in each case. Moreover, the IC50 with HT-29 and with NB-4 was over 20 µM in each case.

Consider `CC(C)CCCCC(=O)N[C@@H](CC(C)C)C(=O)N[C@H](CCCNC(=N)N)C(=O)N[C@@H]1C(=O)N[C@@H]([C@@H](C)C(C)C)C(=O)NCC(=O)N[C@@H]([C@H](C)C(C)C)C(=O)O[C@@H]1C`, for which the minimum inhibitory concentration (MIC) (in [1]; with Helicobacter pylori [2]; with Helicobacter pylori [3]) was 32 µg/mL (≈ 39.6 µM) in each case. The IC50 with PC-9, in the assay with A2780, in the assay with U-937, in the assay with Raji, in the assay on Daudi and in the assay with PC-3 was over 20 µM in each case. Moreover, the IC50 in the assay on HT-29 and in the assay with NB-4 was over 20 µM throughout.

For orientation: IC50 means the point on the concentration scale where inhibition reaches its midpoint. In general, MIC refers to the lowest concentration that inhibits growth of the organism.
